# Measurements published in patent US20140271727A1, “METHOD OF USING AN ANTIDEPRESSANT FOR INCREASING IMMUNITY OF A SUBJECT AND TREATING CANCER” (NATIONAL YANG-MING UNIVERSITY, priority 2013, published 2014).
# Legend:
# [1] = tested on: TNF-α; test: TNF-α in tumor by ex vivo Western blotting; set-up: species or system mouse; settings: Always, Concurrent and After; day 42 post tumor inoculation; decreased to % of Never
# Procedure: As to the quantification of TNF-α, the whole blood withdrawn from the pouch of each mouse once a week for up to 6 weeks was centrifuged at 600×g for 20 min, and serum was collected. The serum TNF-α level was evaluated with an ELISA kit (eBioscience, USA). The level of TNF-α in the tumor of mice on day 42 post tumor inoculation was determined using ex vivo Western Blotting assay. Briefly, 6 weeks after tumor inoculation, the mice were sacrificed and the tumors were quickly removed and minced, then added with lysis buffer containing 1% protease inhibitor cocktail (T-PER tissue protein extraction reagent, Thermo Scientific, USA). Equal amounts of proteins (40 μg) were subjected to SDS-PAGE and transferred to PVDF membranes (Millipore, Bedford, Mass.). Non-specific binding was blocked by incubation with 5% non-fat milk. Membrane was incubated with antibodies against TNF-α (Abbiotec, USA) and β-actin (Millipore, USA) overnight at 4° C. The goat-anti rabbit IgG (Millipore) and goat-anti mouse IgG conjugated with horseradish peroxidase (Millipore) were used as the secondary antibodies. The band signal from the antigen-antibody binding was illustrated with enhanced chemoluminescence system (ECL, Millipore). Image J software (National Institutes of Health, USA) was used for the quantitative analysis.
# [2] = tested on: CT26/luc tumor; test: Survival of CT26/luc tumor-bearing BALB/c mice; type: in vivo, mouse; settings: 10 mg/kg/d by gavage, never 43.1±2.6 days
# Procedure: Second, all animal study protocols were approved by the Institutional Animal Care and Use Committee (IACAU) of National Yang Ming University. Mirtazapine (0.25 mg) was dissolved in 0.05 ml of 0.9% NaCl plus 0.5% absolute ethanol for each mouse (i.e. 10 mg/kg.) Male BALB/c mice (initial weights 25±2 g, and purchased from the National Laboratory Animal Center, Taipei, Taiwan) were housed in the cages, five mice per cage, under a 12:12 h reverse light/dark cycle with lights off at 6 pm Animals were handled and weighed daily for a week to reduce any non-specific stress responses. And then, please refer to FIG. 1A and FIG. 1B, FIG. 1A and FIG. 1B are diagrams showing the experimental designs according to an embodiment of the present invention. […] “Wild-type” means the mice are monitored without tumor inoculation and mirtazapine treatment, drug means the mice are monitored with continuous mirtazapine treatment but without tumor inoculation, never means the mice are monitored with tumor inoculation and daily 0.05 ml of 0.9% NaCl plus 0.5% absolute ethanol treatment but without mirtazapine treatment, always means the mice are monitored with mirtazapine treatment initiated 2 weeks before the tumor inoculation, and concurrent means the mice are monitored with tumor inoculation and mirtazapine treatment on the same day, and after means the mice are monitored with mirtazapine treatment initiated 2 weeks post the tumor inoculation. That is, the mice were assayed on day 22 for behaviors, and then sacrificed for the measurement of lymphocyte subsets and performed with ex vivo autoradiography.
# Accordingly, the CT26/luc cells (2×10^6 cells/200 μL) suspended in the serum-free RPMI medium were transplanted subcutaneously into the dorsal region of the right thighs of the BALB/c mice. 10 mg/kg/d mirtazapine dissolved in 0.9% sodium chloride and 0.5% ethanol was administered to mice by gavage daily till mice expired or terminated on day 67 post tumor inoculation. Survival rate and interval were assayed for never, always, concurrent, and after (n=10 per group). […]
# [3] = tested on: CT26/luc cells; test: MTT cell viability assay; type: cell-based, mouse; settings: 0-80 μM for 24, 48 and 72 hrs
# Procedure: The details in preparing the materials and processing relative analyses will be illustrated as follows. First, CT-26 murine colon carcinoma cells (obtained from Taiwan Liposome Company, Taipei, Taiwan) were transfected with the luciferase gene (hereafter called “CT26/luc”). The CT26/luc tumor cells were cultured in RPMI 1640 medium (Invitrogen) supplemented with 10% fetal bovine serum (Hyclone), 100 units/ml of penicillin, and […] streptomycin (Gibco-BRL) at 37° C. in a 5% CO2 atmosphere.
# Before starting the following investigation. The cell viability is analyzed. 3-(4,5-Dimethylthiazol-2-yl)-2,5-diphenyltetrazolium bromide (MTT, Sigma, USA) was dissolved in phosphate-buffered saline (145 mM NaCl, 1.4 mM KH2PO4, 4.3 mM Na2HPO4, and 2.7 mM KCl, pH 7.2). The CT26/luc cells were seeded in 96-well plates overnight, and then treated with various concentrations, such as 0, 5, 10, 20, 40, and 80 μM, of mirtazapine for 24, 48, and 72 hrs. And then, cell viability was determined with MTT assay. […] After 4 hours incubation at 37° C., 100 μl DMSO was added to dissolve the MTT formazan, and the absorbance was determined with an ELISA reader (Power Wave X340, Bio-Tek Instrument Inc., USA) using a wavelength of 570 nm for the excitation. […] The cell cycle analysis was assayed using a FACScan (BD Sciences) and analyzed by CellQuest software (BD Sciences).
smiles,measurement,setting,value
CN1CCN2c3ncccc3Cc3ccccc3C2C1 (centres unmarked) [mirtazapine],TNF-α level in tumors relative to Never,[1],40%
same,survival time,[2]; group after,57.01 ± 3.2 days
same,survival time,"[2]; group always, terminated on day 67",66.91 ± 0.1 days
same,survival time,[2]; group concurrent,63.61 ± 1.5 days
same,toxicity to CT26 colon cells,[3],nontoxic
